Here are results for 9 compounds from ChEMBL document CHEMBL3817841, “Biological evaluation of quinoline derivatives as inhibitors of human dihydroorotate dehydrogenase” (Medchemcomm, 2016).

Experiment [1] has as its target T1, Dihydroorotate dehydrogenase (quinone), mitochondrial (Homo sapiens, UniProt Q02127). Briefly: Inhibition of N-terminally truncated human DHODH (Met30 to Arg396 residues) expressed in Escherichia coli BL21 (DE3) using dihydroorotate as substrate preincubated for 5 mins followed by substrate addition measured every 30 secs for 6 mins by DCIP-based spectrophotometric assay.

In experiment [2] the target is T1, Dihydroorotate dehydrogenase (quinone), mitochondrial. Briefly: Binding affinity to N-terminally truncated human DHODH (Met30 to Arg396 residues) expressed in Escherichia coli BL21 (DE3) assessed as dissociation rate constant by surface plasmon resonance assay. Background: SPR reads the build-up and loss of mass on a sensor chip optically.
Experiment [3] has the same target. Nature of the experiment: Binding affinity to N-terminally truncated human DHODH (Met30 to Arg396 residues) expressed in Escherichia coli BL21 (DE3) by surface plasmon resonance assay.
The target is the same in experiment [4].
Description: Binding affinity to N-terminally truncated human DHODH (Met30 to Arg396 residues) expressed in Escherichia coli BL21 (DE3) assessed as change in melting temperature at 100 uM by fluorescence-based thermal shift assay
Experiment [5] shares this target. This is another data set of the same source.
Description: Binding affinity to N-terminally truncated human DHODH (Met30 to Arg396 residues) expressed in Escherichia coli BL21 (DE3) assessed as association rate constant by surface plasmon resonance assay

T1 sequence (Q02127 whole entry, the tested form may be a part): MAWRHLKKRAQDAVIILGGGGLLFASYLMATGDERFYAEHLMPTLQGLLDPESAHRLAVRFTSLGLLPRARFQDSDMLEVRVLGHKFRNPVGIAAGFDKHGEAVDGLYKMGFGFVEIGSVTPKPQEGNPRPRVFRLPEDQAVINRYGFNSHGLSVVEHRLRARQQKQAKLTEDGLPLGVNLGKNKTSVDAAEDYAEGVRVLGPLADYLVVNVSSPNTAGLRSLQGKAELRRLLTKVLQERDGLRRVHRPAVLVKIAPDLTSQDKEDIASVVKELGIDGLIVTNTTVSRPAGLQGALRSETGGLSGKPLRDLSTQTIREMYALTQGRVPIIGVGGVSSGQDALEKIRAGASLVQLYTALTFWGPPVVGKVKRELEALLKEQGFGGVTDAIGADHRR

Broadly, the IC50 is the concentration needed to halve the response being measured. High values mean a need for much substance, low ones inhibition by little substance. The compound `O=C(O)c1cc(-c2ccc3c(c2)OCO3)nc2ccccc12` had an IC50 in experiment [1] of 5.18 µM.

In the case of `CCCCOc1cccc(-c2cc(C(=O)O)c3ccccc3n2)c1`, half-maximal inhibition in experiment [1] (IC50) was put at 1.31 µM. On the same count and under the same terms, the value for `CC(C)c1ccc(-c2cc(C(=O)O)c3cc(Br)ccc3n2)cc1` was 0.136 µM. As a reminder, the Kd is the constant that tells how readily two partners part at equilibrium. A higher Kd goes with a looser complex. Broadly, the ΔTm is the change in melting temperature against a reference sample. Consider `CCC(C)c1ccc(-c2nc3ccc(Br)cc3c(C(=O)O)c2C)cc1` (stereo not drawn), for which inhibition in experiment [1] was half-maximal at 0.0097 µM (IC50). Besides, the koff in experiment [2] was 7.58 ×10⁻³ /s. Also, in experiment [3], binding was put at a Kd of 0.012 µM. In addition, the ΔTm in experiment [4] turned out to be 16.6 °C. This compound also came in with a Ka in experiment [5] of 5.99 ×10⁵ /M/s.

In experiment [1], `O=C(O)c1cc(-c2ccc(Cl)c(Cl)c2)nc2ccc(Br)cc12` registered an IC50 of 0.0571 µM. The same measure, in the same setting: the value for `CCCCc1ccc(-c2cc(C(=O)O)c3ccccc3n2)cc1` was 0.437 µM; that for `O=C(O)c1cc(-c2ccc(Cl)cc2Cl)nc2ccc(Br)cc12` was 0.666 µM.

In the case of `COC(=O)c1cc(-c2ccc(OC)c(OC)c2)nc2ccccc12`, in experiment [1], the IC50 amounted to 3.25 µM. `Cc1c(-c2ccc(C(C)C)cc2)nc2ccccc2c1C(=O)O` came in with an IC50 in experiment [1] of 1.57 µM.
